According to US12247015B2, “3-amino-4H-benzo[e][1,2,4]thiadiazine 1,1-dioxide derivatives as inhibitors of MRGX2” (Solent Therapeutics, LLC, priority 2019, dated 2025):

Experiments:
[1] = target: hMRGX2 (CHO-K1 cells overexpressing MRGX2) (Homo sapiens (Human), UniProt Q96LB1); test: In vitro inhibition (EC50) of intracellular calcium flux, FLIPR Tetra, substance P stimulation; format: cell-based; conditions: stimulated with MRGX2 ligand substance P, FLIPR Calcium 5, read-out: hMRGX2 Cellular Potency (pEC50) (converted)
Outline: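 CHO-K1 cells overexpressing human MRGX2, loaded with Calcium 5 dye for 30 min at 37 °C, then given compound (11-point, top 10 μM).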

human MRGX2 receptor = human MRGX2 receptor (Homo sapiens (Human), UniProt Q96LB1); test: In vitro radioligand binding assay (Kd); conditions: membrane from SF9 cells overexpressing human MRGX2; 3H-labeled ligand; pH 7.4, room temperature, 60 minutes
Description: In vitro Radioligand Binding Assay (Kd)
Equilibrium dissociation constants, Kd, for many of the compounds described in the Examples section (“test compounds”) are determined in the presence cellular membrane prepared from SF9 cell lines overexpressing the human MRGX2 receptor. The assay is carried out in a 96-well plate (Greiner V-Bottom #651201). […] The assay mixtures, which comprise MRGX2 receptor, radiolabeled ligand and test compound, are incubated at room temperature (˜22° C.) for 60 minutes to reach equilibrium. After incubation, the assay mixtures are collected on a filter mat (Filtermat A, Perkin Elmer) using a cell harvester (Harvester 96, TOMTEC). The filter mat is completely dried. A solid scintillant (Meltilex, Perkin Elmer) is added to each filter membrane and the level of radioactivity (“Signal”) from each well (assay mixture) is recorded using a scintillation counter (Trilux Microbeta, PerkinElmer). Kd is determined by curve-fitting the dose response data ([I], Signal) for each set of samples to the equation,
[formula] where [I] is the concentration of the test compound. The data are reported as pKd

Chain of hMRGX2 (CHO-K1 cells overexpressing MRGX2) (Q96LB1 whole entry): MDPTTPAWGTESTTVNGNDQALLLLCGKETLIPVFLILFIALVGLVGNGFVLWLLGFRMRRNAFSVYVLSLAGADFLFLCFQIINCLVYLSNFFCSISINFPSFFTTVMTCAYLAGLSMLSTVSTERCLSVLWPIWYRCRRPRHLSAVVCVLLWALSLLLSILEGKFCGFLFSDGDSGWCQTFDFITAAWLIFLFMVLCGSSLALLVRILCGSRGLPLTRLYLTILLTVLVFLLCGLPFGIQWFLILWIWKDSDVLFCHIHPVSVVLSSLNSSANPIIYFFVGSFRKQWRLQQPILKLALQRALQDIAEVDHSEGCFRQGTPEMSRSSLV
Chain of human MRGX2 receptor (Q96LB1 whole entry): as above

O=S1(=O)N=C(NCc2ncccn2)Nc2c(-c3cccc(F)c3Cl)cccc21 [Example 66, 5-(2-chloro-3-fluorophenyl)-3-((pyrimidin-2-ylmethyl)amino)-4H-benzo[e][1,2,4]thiadiazine 1,1-dioxide]
EC50 [1]: 29.4 nM | hMRGX2 Binding Affinity (pKd) (human MRGX2 receptor): 7.22

O=S1(=O)N=C(NCc2ncccc2F)Nc2c(-c3cccc(F)c3Cl)cccc21 [Example 12, 5-(2-chloro-3-fluorophenyl)-3-(((3-fluoropyridin-2-yl)methyl)amino)-4H-benzo[e][1,2,4]thiadiazine 1,1-dioxide]
EC50 [1]: 13.6 nM | hMRGX2 Binding Affinity (pKd) (human MRGX2 receptor): 7.45

Cc1nn(C)cc1-c1cccc2c1NC(Nc1ccc(C(C)C)cc1)=NS2(=O)=O [Example 103, 5-(1,3-dimethyl-1H-pyrazol-4-yl)-3-((4-isopropylphenyl)amino)-4H-benzo[e][1,2,4]thiadiaazne 1,1-dioxide]
EC50 [1]: 51.2 nM | hMRGX2 Binding Affinity (pKd) (human MRGX2 receptor): 6.755

CC(C)c1ccc(NC2=NS(=O)(=O)c3cccc(-c4cnn(C5CCC5)c4)c3N2)cc1 [Example 105, 5-(1-cyclobutyl-1H-pyrazol-4-yl)-3-((4-isopropylphenyl)amino)-4H-benzo[e][1,2,4]thiadiazine 1,1-dioxide]
EC50 [1]: 119 nM | hMRGX2 Binding Affinity (pKd) (human MRGX2 receptor): 6.06

Cc1c(-c2cccc3c2NC(Nc2ccc(C(C)C)cc2)=NS3(=O)=O)cnn1C [Example 114, 5-(1,5-dimethyl-1H-pyrazol-4-yl)-3-((4-isopropylphenyl)amino)-4H-benzo[e][1,2,4]thiadiazine 1,1-dioxide]
EC50 [1]: 262 nM | hMRGX2 Binding Affinity (pKd) (human MRGX2 receptor): 6.095

Cc1ccccc1-c1cccc2c1NC(NCc1ccccn1)=NS2(=O)=O [Example 162, 3-((pyridin-2-ylmethyl)amino)-5-(o-tolyl)-4H-benzo[e][1,2,4]thiadiazine 1,1-dioxide]
EC50 [1]: 100 nM | hMRGX2 Binding Affinity (pKd) (human MRGX2 receptor): 6.51

COCCNC1=NS(=O)(=O)c2cccc(-c3cccc(F)c3C#N)c2N1 [Example 125, 2-fluoro-6-(3-((2-methoxyethyl)amino)-1,1-dioxido-4H-benzo[e][1,2,4]thiadiazin-5-yl)benzonitrile]
EC50 [1]: 78.2 nM | hMRGX2 Binding Affinity (pKd) (human MRGX2 receptor): 6.545

CCc1ccc(NC2=NS(=O)(=O)c3cccc(-c4cnn(C)c4)c3N2)cc1 [Example 136, 3-((4-ethylphenyl)amino)-5-(1-methyl-1H-pyrazol-4-yl)-4H-benzo[e][1,2,4]thiadiazine 1,1-dioxide]
EC50 [1]: 119 nM | hMRGX2 Binding Affinity (pKd) (human MRGX2 receptor): 6.535

CC(C)c1ccc(NC2=NS(=O)(=O)c3cccc(C4CC4)c3N2)cc1 [Example 109, 5-cyclopropyl-3-((4-isopropylphenyl)amino)-4H-benzo[e][1,2,4]thiadiazine 1,1-dioxide]
EC50 [1]: 106 nM | hMRGX2 Binding Affinity (pKd) (human MRGX2 receptor): 6.575

CNC1=NS(=O)(=O)c2cccc(-c3cccc(F)c3Cl)c2N1 [Example 1, 5-(2-chloro-3-fluorophenyl)-3-(methylamino)-4H-benzo[e][1,2,4]thiadiazine 1,1-dioxide]
EC50 [1]: 69.3 nM | hMRGX2 Binding Affinity (pKd) (human MRGX2 receptor): 6.724

O=S1(=O)N=C(NCc2ncco2)Nc2c(-c3cccc(F)c3Cl)cccc21 [Example 28, 5-(2-chloro-3-fluorophenyl)-3-((oxazol-2-ylmethyl)amino)-4H-benzo[e][1,2,4]thiadiazine 1,1-dioxide]
EC50 [1]: 24.1 nM | hMRGX2 Binding Affinity (pKd) (human MRGX2 receptor): 7.03

O=S1(=O)N=C(NCC(F)F)Nc2c(-c3cccc(F)c3Cl)cccc21 [Example 34, 5-(2-chloro-3-fluorophenyl)-3-((2,2-difluoroethyl)amino)-4H-benzo[e][1,2,4]thiadiazine 1,1-dioxide]
EC50 [1]: 38.5 nM | hMRGX2 Binding Affinity (pKd) (human MRGX2 receptor): 7.025

COCc1cccc2c1NC(Nc1ccc(C(C)C)cc1)=NS2(=O)=O [Example 169, 3-((4-isopropylphenyl)amino)-5-(methoxymethyl)-4H-benzo[e][1,2,4]thiadiazine 1,1-dioxide]
EC50 [1]: 474 nM | hMRGX2 Binding Affinity (pKd) (human MRGX2 receptor): 5.95

O=S1(=O)N=C(NCc2ncccc2F)Nc2c(-c3ccccc3Cl)cc(F)cc21 [Example 16, 5-(2-chlorophenyl)-7-fluoro-3-(((3-fluoropyridin-2-yl)methyl)amino)-4H-benzo[e][1,2,4]thiadiazine 1,1-dioxide]
EC50 [1]: 10.3 nM | hMRGX2 Binding Affinity (pKd) (human MRGX2 receptor): 7.5

CC(C)c1ccc(NC2=NS(=O)(=O)c3cccc(-c4cnn(C)c4)c3N2)cc1 [Example 107, 3-((4-isopropylphenyl)amino)-5-(1-methyl-1H-pyrazol-4-yl)-4H-benzo[e][1,2,4]thiadiazine 1,1-dioxide]
EC50 [1]: 132 nM | hMRGX2 Binding Affinity (pKd) (human MRGX2 receptor): 6.52

O=S1(=O)N=C(NCc2nccs2)Nc2c(-c3cccc(F)c3Cl)cccc21 [Example 65, 5-(2-chloro-3-fluorophenyl)-3-((thiazol-2-ylmethyl)amino)-4H-benzo[e][1,2,4]thiadiazine 1,1-dioxide]
EC50 [1]: 10.7 nM | hMRGX2 Binding Affinity (pKd) (human MRGX2 receptor): 7.055

CNC1=NS(=O)(=O)c2cccc(-c3ccccc3Cl)c2N1 [Example 43, 5-(2-chlorophenyl)-3-(methylamino)-4H-benzo[e][1,2,4]thiadiazine 1,1-dioxide]
EC50 [1]: 102 nM | hMRGX2 Binding Affinity (pKd) (human MRGX2 receptor): 6.47

COCCNC1=NS(=O)(=O)c2cccc(-c3ccccc3Cl)c2N1 [Example 35, 5-(2-chlorophenyl)-3-((2-methoxyethyl)amino)-4H-benzo[e][1,2,4]thiadiazine 1,1-dioxide]
EC50 [1]: 92 nM | hMRGX2 Binding Affinity (pKd) (human MRGX2 receptor): 4.7

COCCNC1=NS(=O)(=O)c2cccc(-c3cccc(F)c3Cl)c2N1 [Example 2, 5-(2-chloro-3-fluorophenyl)-3-((2-methoxyethyl)amino)-4H-benzo[e][1,2,4]thiadiazine 1,1-dioxide]
EC50 [1]: 51.9 nM | hMRGX2 Binding Affinity (pKd) (human MRGX2 receptor): 6.984

COCCNC1=NS(=O)(=O)c2cc(F)cc(-c3cccc(F)c3Cl)c2N1 [Example 4, 5-(2-chloro-3-fluorophenyl)-7-fluoro-3-((2-methoxyethyl)amino)-4H-benzo[e][1,2,4]thiadiazine 1,1-dioxide]
EC50 [1]: 15.4 nM | hMRGX2 Binding Affinity (pKd) (human MRGX2 receptor): 6.975

CCNC1=NS(=O)(=O)c2cccc(-c3cccc(F)c3Cl)c2N1 [Example 39, 5-(2-chloro-3-fluorophenyl)-3-(ethylamino)-4H-benzo[e][1,2,4]thiadiazine 1,1-dioxide]
EC50 [1]: 52 nM | hMRGX2 Binding Affinity (pKd) (human MRGX2 receptor): 7.055

Cc1ccccc1-c1cccc2c1NC(NCc1ccco1)=NS2(=O)=O [Example 137, 3-((furan-2-ylmethyl)amino)-5-(o-tolyl)-4H-benzo[e][1,2,4]thiadiazine 1,1-dioxide]
EC50 [1]: 79.1 nM | hMRGX2 Binding Affinity (pKd) (human MRGX2 receptor): 6.54

CNC1=NS(=O)(=O)c2cccc(-c3cccc(F)c3C#N)c2N1 [Example 89, 2-fluoro-6-(3-(methylamino)-1,1-dioxido-4H-benzo[e][1,2,4]thiadiazin-5-yl)benzonitrile]
EC50 [1]: 69.2 nM | hMRGX2 Binding Affinity (pKd) (human MRGX2 receptor): 6.35
